Experimental data published in US7829576B2 (priority 2008, dated 2010).
Entries after “also recorded” stand apart in the source; their conditions may differ.

Columns and labels:
[1] = tested on: pain intensity; details: study completers, double-blind placebo-controlled; cited from earlier work
[2] = target: T1, CYP2D6 (Homo sapiens, UniProt P10635); assay: CYP2D6 inhibition screening, recombinant enzyme, MAMC substrate; assay type: in vitro ADME
T1 construct: purchased BD Bioscience
Procedure: Protocol. […] The source of the enzyme was microsomes containing human recombinant CYP2D6 obtained from BD Bioscience. Conversion of MAMC to 7-hydroxy-4-(aminomethyl)coumarin was measured using a PerkinElmer Fusion with a 390 nm excitation filter and a 460 nm emission filter.

[3] = target: T1, CYP2D6; assay: CYP2D6 inhibition (dextromethorphan O-demethylation) in human hepatic microsomes; assay type: in vitro ADME; details: pooled male human hepatic microsomes
Procedure: The 200 μL incubations were conducted in duplicate in 0.1 M potassium phosphate buffer (pH 7.4) with 0.02 mg of microsomal protein, 3 mM MgCl2, 1 mM EDTA and 7.5 μM of the probe substrate dextromethorphan in a 96-well polypropylene plate maintained at 37° C. After a 3-minute pre-incubation, the reaction was initiated with the addition of 2 mM NADPH. Upon completion of the 10-minute incubation period, aliquots of 100 μL were removed and added to a new plate containing 100 μL of internal standard in acidified acetonitrile to stop the reaction. The quenched samples were vortexed and the precipitated protein was removed by centrifugation. Supernatant aliquots of 100 μL were transferred to LC vials and 5 μL were injected onto the HPLC system for LC/MS/MS analysis of the metabolite dextrorphan. Standards and quality control samples were similarly prepared using authentic dextrorphan standards.
Dexthorphan concentrations were determined by high performance liquid chromatography with tandem mass spectrometric detection (LC/MS/MS) after protein precipitation with acidified acetonitrile containing internal standard. Separations were performed with a Flux Rheos 2000 quaternary pump (Leap Technologies, Inc., Carrboro, N.C.) using an XTerra® MS C18, 3.5 μm, 4.6×50 mm column (Waters Corporation, Milford, Mass.). […]

[4] = tested on: noradrenaline reuptake; details: synaptosomes from rat and primate brain; cited from earlier work
[5] = tested on: animal models of depression; details: preclinical models of depression; cited from earlier work
[6] = tested on: male ICR mice; assay: Acetic acid-induced writhing (visceral pain); assay type: in vivo, mouse
Procedure: Protocol. […] Five minutes after treatment with acetic acid, the number of writhes was counted for 10 min. A writhe is defined as the extension of both front and hind limbs with a concave stretch of the abdomen. The mean number of writhes was determined for each treatment group and the percent inhibition of the vehicle response was calculated using the following formula: […]

[7] = tested on: FCA-treated rats; assay: FCA-induced mechanical hyperalgesia (inflammatory pain); assay type: in vivo, rat
Procedure: Protocol. […] For the assay, the methods of DeHaven-Hudkins et al., 1999, J. Pharmacol. Exp. Ther. 289:494-502 were used to determine mechanical hyperalgesia in rats 24 hours after intraplantar administration of 150 μL Freund's Complete Adjuvant (FCA). To determine paw pressure thresholds, the rats were lightly restrained in a gauze wrap and pressure was applied to the dorsal surface of the inflamed and uninflamed paw with a conical piston using a pressure analgesia apparatus (Stoelting Instruments, Wood Dale, Ill.). […] Paw pressure thresholds were determined before and at specified times after drug treatment. All test groups contained at least six animals. Protocol. A sample of (±)-beloxepin was prepared by milling the isolated (+)-beloxepin and (−)-beloxepin enantiomers together, bringing them up in solvent, and then removing the solvent (“Lot 9”). In this experiment, 30 mg/kg of (±)-beloxepin (“Lot 7”) or 30 mg/kg of the reconstituted racemic mixture (Lot 9) was administered in rats treated with FCA for 24 hours. Thirty minutes after treatment with vehicle, (±)-beloxepin, or reconstituted racemic mixture, paw pressure thresholds were determined. Thirty minutes is the time of peak mechanical antihyperalgesia of (±)-beloxepin.

[8] = cited from earlier work
[9] = target: T2, 5HT2C receptor (Homo sapiens, UniProt P28335); details: published report; cited from earlier work
T2 sequence (P28335 33-458): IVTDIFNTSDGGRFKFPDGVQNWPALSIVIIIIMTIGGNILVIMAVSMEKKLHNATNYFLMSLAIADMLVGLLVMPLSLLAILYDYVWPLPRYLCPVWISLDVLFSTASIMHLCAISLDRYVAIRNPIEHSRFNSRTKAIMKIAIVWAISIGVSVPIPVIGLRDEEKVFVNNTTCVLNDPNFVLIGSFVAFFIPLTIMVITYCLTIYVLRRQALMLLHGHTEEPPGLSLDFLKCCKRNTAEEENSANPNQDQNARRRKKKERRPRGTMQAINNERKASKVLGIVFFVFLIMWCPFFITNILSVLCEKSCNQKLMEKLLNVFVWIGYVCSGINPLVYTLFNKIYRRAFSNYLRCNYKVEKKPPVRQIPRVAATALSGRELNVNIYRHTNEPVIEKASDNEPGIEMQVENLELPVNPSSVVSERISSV

[10] = tested on: patients hospitalized for depression; details: phase IIA; cited from earlier work
[11] = tested on: L5 SNL rats; assay: L5 SNL model of neuropathic pain, tactile allodynia (von Frey); assay type: in vivo, rat
Procedure: Protocol. […] Neurosci. Methods 144:175-181. The test animals were placed in a Plexiglas chamber (10 cm×20 cm×25 cm) and habituated for 15 minutes. The chamber was positioned on top of a mesh screen so that von Frey monofilaments could be presented to the plantar surface of both hindpaws. Measurement of tactile sensitivity for each hind paw were obtained using the up/down method (Dixon, 1980, Annu Rev. Pharmacol. […] Each trial started with a von Frey force of 2 grams delivered to the right hind paw for approximately 1-2 seconds and then the left hind paw. If there was no withdrawal response, the next higher force was delivered. If there was a response, the next lower force was delivered. This procedure was performed until no response was made at the highest force (15 grams) or until four stimuli were administered following the initial response. The 50% paw withdrawal threshold for each paw was calculated using the following formula: […] Testing for tactile sensitivity was performed twice and the mean 50% withdrawal value assigned as the tactile sensitivity for the right and left paws for each animal. All test groups contained at least six animals. Protocol. […] In the experiment, animals were tested for tactile allodynia at 30 min post treatment. The sham-operated control group, which were operated on but not subject to nerve ligation, contained 4 animals. The treatment group contained at least six animals. Protocol. […] All test groups contained at least six animals. Protocol. […] The data obtained are depicted in FIG. 11.

[12] = tested on: rat hindpaw incisional model; assay: Rat hindpaw incisional pain model, tactile allodynia; assay type: in vivo; details: for antiallodynic effect over time: tested 30, 60, 120, 240 minutes
Procedure: Protocol. A time course experiment was performed with beloxepin in the hindpaw incision model. […] Protocol. […] Protocol.

[13] = tested on: L5 SNL rats; assay: L5 SNL model of neuropathic pain, tactile allodynia (von Frey); assay type: in vivo, rat; details: for antiallodynic effect over time, oral: 60 mg/kg PO
[14] = tested on: Male Sprague-Dawley rats; assay: Rat hot plate model of acute nociceptive pain; assay type: in vivo; details: 30 and 60 mg/kg IP, 50° C. hot plate (FIGS. 6A, 6B)
Procedure: Protocol. […] For the experiment, rats were acclimated to a 50° C. hot plate apparatus by gently placing them on the hot plate with all four paws on the surface. A timer was started and the latency (in seconds) until the rat licked any of its paws was measured. A 60 second cut-off to elicit a response was set to prevent tissue damage to the paws. After the rats elicited the paw lick response, they were removed from the apparatus and returned to their home cages for at least 30 minutes. Baseline paw lick latencies were determined prior to drug treatments in an identical manner to the acclimation test. Following drug treatments, the rats were placed on the hot plate apparatus at the appropriate time and treatment paw lick latencies were determined. All test groups contained at least six animals.

[15] = tested on: noradrenergic, histaminergic and cholinergic receptors; details: published report; cited from earlier work
[16] = tested on: major depression; details: subsequent clinical trials; cited from earlier work
[17] = single dose, 10 to 500 mg; cited from earlier work
[18] = tested on: human volunteers; details: 25-400 mg, cited from earlier work

T1 sequence (P10635 whole entry): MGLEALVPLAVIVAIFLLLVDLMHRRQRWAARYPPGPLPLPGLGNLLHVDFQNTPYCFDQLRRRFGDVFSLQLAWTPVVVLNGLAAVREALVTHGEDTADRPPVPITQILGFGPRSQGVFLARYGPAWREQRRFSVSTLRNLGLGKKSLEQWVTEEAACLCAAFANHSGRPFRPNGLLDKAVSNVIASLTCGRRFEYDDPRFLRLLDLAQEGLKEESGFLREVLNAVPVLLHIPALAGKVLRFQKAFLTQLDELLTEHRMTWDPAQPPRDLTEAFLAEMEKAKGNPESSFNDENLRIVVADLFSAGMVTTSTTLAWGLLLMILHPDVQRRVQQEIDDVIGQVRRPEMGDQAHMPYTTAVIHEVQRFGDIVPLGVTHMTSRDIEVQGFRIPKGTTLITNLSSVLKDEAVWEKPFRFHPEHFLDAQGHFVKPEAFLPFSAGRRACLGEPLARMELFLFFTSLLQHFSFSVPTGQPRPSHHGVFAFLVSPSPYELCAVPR

Fc1ccc([C@@H]2CCNC[C@H]2COc2ccc3c(c2)OCO3)cc1 [paroxetine]
reduction in pain intensity [1]: 26%

CNCCCC12CCC(c3ccccc31)c1ccccc12 [maprotiline]
reduction in pain intensity [1]: 45%

Cc1cccc2c1Oc1ccccc1C1(O)CCN(C)CC21 (racemic) [beloxepin, cis-1,2,3,4,4a,13b-hexahydro-2,10-dimethyldiben-[2,3:6,7]oxepino[4,5c]pyridine-4a-ol]]
IC50 ([2]; human recombinant CYP2D6 microsomes, read-out: CYP2D6 IC50 (initial screening, MAMC substrate)): 0.536 µM | inhibition at 10 µM ([2]; human, probe 7-methoxy-4-(aminomethyl)-coumarin (MAMC)): 97% | IC50 [3]: 31.7 µM | affinity for other monoamine carriers (serotonin and dopamine transporters) less than for noradrenaline reuptake [4]: greater than 100 fold | sedation, motor impairment, side effects in animal tests [5]: did not cause sedation, motor impairment or other untoward side effects | ED50 ([6]; Mus musculus, oral, 25 min prior to 0.6% acetic acid IP (FIG. 8), read-out: ED50 inhibition of acetic acid-induced writhing): 13.3 mg/kg | inhibition of acetic acid-induced writhing, dose dependence ([6]; oral (FIG. 8)): dose-dependent fashion | reversal of FCA-induced hyperalgesia ([7]; 30 mg/kg (FIG. 7)): nearly completely reversed hyperalgesia; also recorded: nearly complete reversal of hyperalgesia | mechanical antihyperalgesic efficacy ([7]; 30 mg/kg IP, 24 hours after FCA, 30 min after treatment (FIG. 9)): 96±16% | t1/2, steady state ([8]; healthy normal subjects, 50 to 800 mg): 12 to 14 h | adverse effects in healthy volunteers ([8]; up to 800 mg/day): No important adverse effects were observed | affinity for the 5HT2C receptor [9]: modest affinity | fraction of patients with a moderate to good response (HAMD score reduction) [10]: ⅔ | side effects following treatment ([11]; 30 mg/kg IP, L5 SNL rats): No side effects were observed | antiallodynic efficacy compared with duloxetine ([11]; each 30 mg/kg IP (FIG. 11)): comparable in efficacy to duloxetine | peak antiallodynic effect compared with esreboxetine ([11]; each 30 mg/kg IP (FIG. 11)): greater than that measured in rats treated with esreboxetine | maximum hindpaw withdrawal threshold ([12]; 3 mg/kg IV, 24 hours post-surgery, 30 minute time point (FIG. 14)): ~21 grams | antiallodynic effect over time ([12]; 3 mg/kg IV): significant antiallodynic effect at the 30 and 120 minute time points | maximum threshold, % of the threshold value for vehicle treated rats ([12]; 30 mg/kg IP, 30 minute time point (FIG. 12)): 544% | maximum hindpaw withdrawal threshold ([12]; 30 mg/kg IP, 24 hours post surgery, 30 minute time point (FIG. 12)): ~29 grams | antiallodynic effect over time ([12]; 30 mg/kg IP): significant antiallodynic effect at all four time points | maximum hindpaw withdrawal threshold ([12]; 60 mg/kg PO, 24 hours post-surgery, 30 and 60 minute time points (FIG. 13)): ~24 grams | antiallodynic effect over time ([12]; 60 mg/kg PO): significant antiallodynic effect at all four time points | 3 mg/kg IV dose lower than a dose that produced a significant respiratory or cardiovascular side effect ([12]; IV, rats): 10 fold | tactile antiallodynic effect, % of that observed with sham-operated animals ([13]; 30 mg/kg IP (FIG. 2)): ~100% | observed mean threshold ([13]; 30 mg/kg IP (FIG. 3)): approximately 15 g | maximal antiallodynic effect, % of the threshold of vehicle-treated rats ([13]; 30 mg/kg IP, 14 days post surgery, 30 min post treatment (FIG. 1)): 829% | antiallodynic effect over time ([13]; 30 mg/kg IP, 14 days post surgery, tested 30, 60, 120, 240 min): significant antiallodynia effects at the 30, 60 and 120 min time points | antiallodynic effect, % of the threshold for vehicle-treated rats ([13]; 30 mg/kg IP, 16 days post surgery, 30 min post treatment (FIG. 2)): 852% | antiallodynic effect over time, oral ([13]; 7 days post surgery, tested 30, 60, 120, 240 min (FIG. 10)): significant antiallodynic effects at all four time points | antiallodynic effect over time, oral ([13]; 8 days post surgery, tested 30, 60, 120, 240 min (FIG. 4)): significant and robust antiallodynic effects at the 30 and 60 min time points | antiallodynic effect compared with duloxetine, amitriptyline, reboxetine ([13]; each 30 mg/kg IP (FIG. 5)): the most effective of the compounds tested | anti-nociceptive activity (paw lick latency) [14]: nearly as effective as 3 mg/kg morphine; also recorded: almost equivalent to that of 3 mg/kg morphine | affinity for noradrenergic, histaminergic and cholinergic receptors [15]: no or very weak affinity | efficacy for the treatment of major depression [16]: insufficient efficacy | t1/2 [17]: 11 to 15 h | tmax [17]: one to four | total duration of nocturnal REM sleep ([18]; EEG): decreased total duration of nocturnal REM sleep | REM latency ([18]; acutely and sub-chronically, EEG): dose-dependently prolonged REM latency | sedation or other side effects in sleep studies ([18]; human volunteers): No sedation or other side effects were observed
